For assay [1], the system named is HCT116. Put plainly: efficacy (fitted maximal change in viability relative to DMSO control); higher = less cytotoxic (negative = loss of viability). Conditions: 48 h.
The subject of assay [2] is HCT116. Put plainly: AC50 cell viability (CellTiter-Glo); higher = less potent. Conditions: 48 h.

Structures can show the parent of a compound that is named as a salt.
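Throughout, for AC50 cell viability (CellTiter-Glo): HCT116 colorectal carcinoma cells screened at five concentrations per compound, luminescent viability scaled between DMSO wells and empty wells on each plate, curves fitted per compound.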
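Throughout, for efficacy (fitted maximal change in viability relative to DMSO control): Luminescence-based viability readout, five doses per compound, normalized against on-plate DMSO and empty-well controls, followed by dose-response curve fitting for every drug.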

In the case of `CC(O)c1cc(C(=O)N[C@@H](C)Cn2ccc(-c3ccc(C#N)c(Cl)c3)n2)n[nH]1` (stereo partly specified) [Darolutamide (ODM-201)], the efficacy in the assay on HCT116 [1] is -38.4%. This compound also yielded an AC50 cell viability in the assay with HCT116 [2] of 16.6 µM.
The like results for `Cc1nc(Nc2ncc(C(=O)Nc3c(C)cccc3Cl)s2)cc(N2CCN(CCO)CC2)n1` [Dasatinib] were, in that order, -81.1% and 14.8 µM.
The matching figures for `C[C@@H]1C[C@H]2[C@@H]3\C=C(C)/C4=C/C5=C(C[C@]4(C)[C@H]3[C@@H](O)C[C@]2(C)[C@@]1(O)C(=O)CO)C=N[N]5C6=CC=CC=C6` [Deacetyl cortivazol]: -121% and 26.3 µM.
As to `CC[C@@](C)(Nc1ccnc(-c2c[nH]c3ncccc23)n1)C(=O)NCC(F)(F)F` [Decernotinib], the efficacy in the assay with HCT116 [1] is -56.7%. Besides, the AC50 cell viability in the assay on HCT116 [2] amounted to 20.9 µM.
Take `NC\1=N\C(=O)N(\C=N1)[C@H]2C[C@H](O)[C@@H](CO)O2` [Decitabine]: in the assay with HCT116 [1], the efficacy is -42.1%. Besides, the AC50 cell viability in the assay on HCT116 [2] came out at 9.34 µM.
On to `CNC(=O)c1ccc(Nc2ncc(C(F)(F)F)c(NCc3nccnc3N(C)[S+](C)(=O)[O-])n2)cc1` [Defactinib], for which, in the assay on HCT116 [1], the efficacy was -71.4%. This compound also yielded an AC50 cell viability with HCT116 [2] of 1.86 µM.
The matching figures for `O=C(O)c1ccc(-n2nc(-c3ccccc3O)nc2-c2ccccc2O)cc1` [Deferasirox]: -92.9% and 13.2 µM.
The matching figures for `CC(=O)N(O)CCCCCNC(=O)CCC(=O)N(O)CCCCCNC(=O)CCC(=O)N(O)CCCCCN` [Deferoxamine mesylate]: -95.9% and 9.34 µM.
The matching figures for `CCC[C@H](NC(=O)/C(C#N)=C/c1cccc(Br)n1)c1ccccc1` [Degrasyn]: -104% and 26.3 µM.
`COC1=CC2=C(C=C1OC)[C@H]3[C@@H](CO2)OC4=C(C=CC5=C4\C=C/C(C)(C)O5)C3=O` [Deguelin]: the efficacy in the assay on HCT116 [1] is -82.8%. In the assay with HCT116 [2], the AC50 cell viability was found to be 5.25 µM.
The like results for `CC(C)C[C@H](NC(=O)[C@@H](NC(=O)c1cccc(-c2ccccc2)n1)[C@@H](C)O)B(O)O` [Delanzomib] were, in that order, -84.8% and 0.0362 µM.
The matching figures for `c1ccc(Cn2c(-c3ccc(OCC(C4CCNCC4)n4c(-c5ccccc5)nc5ccccc54)cc3)nc3ccccc32)cc1` (stereo unspecified) [Deltarasin]: -89.7% and 9.34 µM.
With `CN[C@H]1CCC2=CC(=C(OC)C(=C2C/3=C/C=C(OC)\C(=O)/C=C13)OC)OC` [Demecolcine], the efficacy in the assay with HCT116 [1] is -62.6%. The compound further had an AC50 cell viability with HCT116 [2] of 0.059 µM.
In the case of `COCCNCCc1cccc(Nc2ncc3c(n2)-c2ccccc2[C@H](c2ccccc2F)C3)c1` [Derazantinib], in the assay with HCT116 [1], the efficacy was -95.8%. In the assay on HCT116 [2], this compound yielded an AC50 cell viability of 10.5 µM.
The matching figures for `CCCCCCC(C)(C)C1=CC2=C([C@H]3CC(=C/CC3C(C)(C)O2)\CO)C(=C1)O` (stereo partly specified) [Dexanabinol]: -93.9% and 8.33 µM.
As for `ClC1=CC=C(C=C1)C(C#N)C2=C(Cl)C=C(C=C2Cl)N3\N=C/C(=O)NC3=O` (stereo unspecified) [Diclazuril], the efficacy with HCT116 [1] was -56%. Besides, the AC50 cell viability with HCT116 [2] came to 23.5 µM.
For `CC/C(=C(/CC)c1ccc(O)cc1)c1ccc(O)cc1` [Diethylstilbestrol], the efficacy in the assay on HCT116 [1] was -47.2%. This compound showed an AC50 cell viability with HCT116 [2] of 18.6 µM.
In the case of `C[C@H]1O[C@H](C[C@H](O)[C@@H]1O)O[C@H]2[C@@H](O)C[C@@H](O[C@@H]2C)O[C@H]3[C@@H](O)C[C@@H](O[C@@H]3C)O[C@H]4CC[C@@]5(C)[C@H](CC[C@@H]6[C@@H]5C[C@@H](O)[C@]7(C)[C@H](CC[C@]67O)C/8=C/C(=O)OC8)C4` [Digoxin], the efficacy with HCT116 [1] is -80.9%. For the same compound, the AC50 cell viability in the assay on HCT116 [2] amounted to 0.0525 µM.
With `C[C@@H]1CC[C@@]2(OC1)O[C@H]3C[C@H]4[C@@H]5C/C=C6/C[C@H](CC[C@]6(C)[C@H]5CC[C@]4(C)[C@H]3[C@@H]2C)O[C@@H]7O[C@H](CO)[C@@H](O[C@@H]8O[C@@H](C)[C@H](O)[C@@H](O)[C@H]8O)[C@H](O)[C@H]7O[C@@H]9O[C@@H](C)[C@H](O)[C@@H](O)[C@H]9O` [Dioscin], the efficacy with HCT116 [1] was -101%. In the assay with HCT116 [2], this compound came in with an AC50 cell viability of 5.25 µM.
`CCN(CC)C(=S)SSC(=S)N(CC)CC` [Disulfiram]: the efficacy in the assay on HCT116 [1] was -101%. Further, in the assay on HCT116 [2], the AC50 cell viability was found to be 16.6 µM.
The matching figures for `O=C(C(c1ccccc1)c1ccccc1)N1CCN(CC(O)COc2cccc3ncccc23)CC1` (stereo unspecified) [Dofequidar]: -50.3% and 18.6 µM.
The matching figures for `O=c1[nH]c2ccccc2n1CCCN1CCC(n2c(=O)[nH]c3cc(Cl)ccc32)CC1` [Domperidone]: -68% and 18.6 µM.
As for `Cc1ccc(-n2nc(C(C)(C)C)cc2NC(=O)Nc2ccc(OCCN3CCOCC3)c3ccccc23)cc1` [Doramapimod], the efficacy with HCT116 [1] was -76.9%. In addition, in the assay on HCT116 [2], the AC50 cell viability was determined as 20.9 µM.

For the origin of these results see the supplement of paper PMC10290057.
